Values of other authors in patent publication US20050008712A1, “Compositions incorporating high-caffeine green tea extract and related methods for promoting healthy body weight” (priority 2003, published 2005).

Settings: rats

## O=C(O[C@@H]1Cc2c(O)cc(O)cc2O[C@@H]1c1cc(O)c(O)c(O)c1)c1cc(O)c(O)c(O)c1 [EGCG, (−)-epigallo-catechin-3-gallate]
After daily injections for a week
  loss of body weight: 20%
injected
  blood cholesterol: significantly reduces
  blood triglycerides: significantly reduces
  body weight: significantly reduces
  food intake: significantly reduces
